Experimental data as given in ChEMBL document CHEMBL1201862, “PubChem BioAssay data set” (2004).
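Results reflect a 48-hour exposure of cells in 96-well plates to compound at five concentrations. Abbreviation: GI50, concentration required for 50% inhibition of growth.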 Activity calls are given as the source filed them. Rule as the data show it: active = GI50 up to about 1.1 µM and inactive = higher.

Columns and labels:
Test in all cases: NCI anticancer screen, dose series, 48 h
786-0 = system: 786-0
A498 = system: A498
CAKI-1 = system: CAKI-1
CCRF-CEM = system: CCRF-CEM
EKVX = system: EKVX
HCT-15 = system: HCT-15
HT-29 = system: HT-29
Hs-578T = system: Hs-578T
IGROV-1 = system: IGROV-1
M14 = system: M14
NCI-H226 = system: NCI-H226
NCI-H522 = system: NCI-H522
NCI/ADR-RES = system: NCI/ADR-RES
SF-539 = system: SF-539
SK-OV-3 = system: SK-OV-3
SN12C = system: SN12C
SNB-75 = system: SNB-75
SR = system: SR
SW-620 = system: SW-620
T47D = system: T47D

Row | SMILES | GI50 (786-0) | GI50 (A498) | GI50 (CAKI-1) | GI50 (CCRF-CEM) | GI50 (EKVX) | GI50 (HCT-15) | GI50 (HT-29) | GI50 (Hs-578T) | GI50 (IGROV-1) | GI50 (M14) | GI50 (NCI-H226) | GI50 (NCI-H522) | GI50 (NCI/ADR-RES) | GI50 (SF-539) | GI50 (SK-OV-3) | GI50 (SN12C) | GI50 (SNB-75) | GI50 (SR) | GI50 (SW-620) | GI50 (T47D)
1 | O=C1CC2(CCNCC2)C(=O)N1N1CCOCC1 | > 100 µM (inactive) | > 100 µM (inactive) | > 100 µM (inactive) | > 100 µM (inactive) | > 100 µM (inactive) | > 100 µM | > 100 µM (inactive) | > 100 µM (inactive) | > 100 µM (inactive) | > 100 µM (inactive) | > 100 µM (inactive) | > 100 µM (inactive) | > 100 µM (inactive) | > 100 µM (inactive) | > 100 µM (inactive) | > 100 µM (inactive) | > 100 µM (inactive) | > 100 µM (inactive) | > 100 µM (inactive) | > 100 µM (inactive)
2 | BrC(Br)=C1C(=C(Br)Br)C(Br)C1Br (stereo not given) | 0.163 µM (active) | 1.06 µM (active) | 0.132 µM (active) | 0.0989 µM (active) | 2.08 µM (inactive) | 0.301 µM | 0.362 µM (active) | 2.51 µM (inactive) | 0.628 µM (active) | 0.198 µM (active) | 0.275 µM (active) | 0.139 µM (active) | 0.733 µM (active) | 0.811 µM (active) | 3.33 µM (inactive) | 0.716 µM (active) | 1.69 µM (inactive) | 0.043 µM (active) | 0.207 µM (active) | 1.76 µM (inactive)
